US10323022B2, “Pyrrolidinyl urea, pyrrolidinyl thiourea and pyrrolidinyl guanidine compounds as TrkA kinase inhibitors” (Array BioPharma Inc., priority 2011, dated 2019)

Target: TrkA (Homo sapiens (Human), UniProt P04629)
Test: TrkA Omnia Assay
Assay type: biochemical
Settings: averaged IC50; 20 nM enzyme, 500 μM ATP, 10 μM peptide substrate
Summary of the method: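 Continuous fluorescent kinase read-out (ex 360 nm, em 485 nm) over 70 min, with initial rates fitted to 4- or 5-parameter logistic curves for IC50. Final conditions: 500 μM ATP, 10 μM Omnia Tyr Peptide #4, 20 nM TrkA, MOPS pH 7.5 buffer with MgCl2 and Triton X-100; enzyme and compound preincubated 10 min at ambient temperature.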

TrkA, sequence (P04629 33-796): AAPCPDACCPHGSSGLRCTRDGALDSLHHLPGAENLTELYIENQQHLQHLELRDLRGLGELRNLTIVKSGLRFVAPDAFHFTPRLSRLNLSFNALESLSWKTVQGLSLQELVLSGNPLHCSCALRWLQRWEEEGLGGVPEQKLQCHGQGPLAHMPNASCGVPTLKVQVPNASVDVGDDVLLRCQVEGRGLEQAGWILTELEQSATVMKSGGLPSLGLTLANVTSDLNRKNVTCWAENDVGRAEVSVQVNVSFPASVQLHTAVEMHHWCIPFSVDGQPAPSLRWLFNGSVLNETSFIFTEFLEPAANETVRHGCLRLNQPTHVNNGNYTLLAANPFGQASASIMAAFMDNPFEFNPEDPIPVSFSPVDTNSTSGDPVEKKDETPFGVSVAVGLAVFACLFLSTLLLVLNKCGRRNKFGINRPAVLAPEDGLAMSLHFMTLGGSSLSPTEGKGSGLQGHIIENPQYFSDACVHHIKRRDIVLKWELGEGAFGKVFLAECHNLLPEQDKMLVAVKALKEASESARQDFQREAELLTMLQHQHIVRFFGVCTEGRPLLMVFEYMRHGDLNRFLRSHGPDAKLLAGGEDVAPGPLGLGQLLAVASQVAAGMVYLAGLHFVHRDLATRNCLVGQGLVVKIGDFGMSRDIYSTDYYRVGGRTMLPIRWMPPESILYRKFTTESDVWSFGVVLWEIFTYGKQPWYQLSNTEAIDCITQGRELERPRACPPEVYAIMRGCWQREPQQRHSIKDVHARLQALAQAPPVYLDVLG

COCCN1C[C@@H](NC(=O)Nc2c(Br)c(COC)nn2-c2ccccc2)[C@H](c2cc(F)cc(F)c2)C1 [Example 406, 1-(4-bromo-3-(methoxymethyl)-1-phenyl-1H-pyrazol-5-yl)-3-((3S,4R)-4-(3,5-difluorophenyl)-1-(2-methoxyethyl)pyrrolidin-3-yl)urea]
IC50: < 100 nM

COCCN1C[C@@H](NC(=O)Nc2c(Cl)c(COC)nn2-c2ccccc2)[C@H](c2ccc(F)cc2)C1 [Example 407, 1-(4-chloro-3-(methoxymethyl)-1-phenyl-1H-pyrazol-5-yl)-3-((3S,4R)-4-(4-fluorophenyl)-1-(2-methoxyethyl)pyrrolidin-3-yl)urea]
IC50: < 100 nM

COCCN1C[C@@H](NC(=O)Nc2c(Br)c(COC)nn2-c2ccccc2)[C@H](c2ccc(F)cc2)C1 [Example 408, 1-(4-bromo-3-(methoxymethyl)-1-phenyl-1H-pyrazol-5-yl)-3-((3S,4R)-4-(4-fluorophenyl)-1-(2-methoxyethyl)pyrrolidin-3-yl)urea]
IC50: < 100 nM

COCCN1C[C@@H](NC(=O)Nc2c(Cl)c(C(F)(F)CO)nn2-c2ccccc2)[C@H](c2ccc(F)c(F)c2)C1 [Example 409, 1-(4-chloro-3-(1,1-difluoro-2-hydroxyethyl)-1-phenyl-1H-pyrazol-5-yl)-3-((3S,4R)-4-(3,4-difluorophenyl)-1-(2-methoxyethyl)pyrrolidin-3-yl)urea]
IC50: < 100 nM

COCCN1C[C@@H](NC(=O)Nc2c(Cl)c(C(F)(F)CO)nn2-c2ccccc2)[C@H](c2cc(F)cc(F)c2)C1 [Example 410, 1-(4-chloro-3-(1,1-difluoro-2-hydroxyethyl)-1-phenyl-1H-pyrazol-5-yl)-3-((3S,4R)-4-(3,5-difluorophenyl)-1-(2-methoxyethyl)pyrrolidin-3-yl)urea]
IC50: < 100 nM

COCCN1C[C@@H](NC(=O)Nc2c(Cl)c(C(F)(F)CO)nn2-c2ccccc2)[C@H](c2ccc(F)cc2)C1 [Example 411, 1-(4-chloro-3-(1,1-difluoro-2-hydroxyethyl)-1-phenyl-1H-pyrazol-5-yl)-3-((3S,4R)-4-(4-fluorophenyl)-1-(2-methoxyethyl)pyrrolidin-3-yl)urea]
IC50: < 100 nM

COCCN1C[C@@H](NC(=O)Nc2c(Cl)c(C[C@H](C)O)nn2-c2ccccc2)[C@H](c2ccc(F)c(F)c2)C1 [Example 412, 1-(4-chloro-3-((S)-2-hydroxypropyl)-1-phenyl-1H-pyrazol-5-yl)-3-((3S,4R)-4-(3,4-difluorophenyl)-1-(2-methoxyethyl)pyrrolidin-3-yl)urea]
IC50: < 100 nM

COCCN1C[C@@H](NC(=O)Nc2c(Cl)c(C[C@@H](C)O)nn2-c2ccccc2)[C@H](c2ccc(F)c(F)c2)C1 [Example 413, 1-(4-chloro-3-((R)-2-hydroxypropyl)-1-phenyl-1H-pyrazo1-5-yl)-3-((3S,4R)-4-(3,4-difluorophenyl)-1-(2-methoxyethyl)pyrrolidin-3-yl)urea]
IC50: < 100 nM

COCCN1C[C@@H](NC(=O)Nc2c(Br)c(C[C@@H](C)O)nn2-c2ccccc2)[C@H](c2ccc(F)c(F)c2)C1 [Example 414, 1-(4-bromo-3-((R)-2-hydroxypropyl)-1-phenyl-1H-pyrazol-5-yl)-3-((3S,4R)-4-(3,4-difluorophenyl)-1-(2-methoxyethyl)pyrrolidin-3-yl)urea]
IC50: < 100 nM

COCCN1C[C@@H](NC(=O)Nc2c(Cl)c(CC(C)(C)O)nn2-c2ccccc2)[C@H](c2ccc(F)c(F)c2)C1 [Example 415, 1-(4-chloro-3-(2-hydroxy-2-methylpropyl)-1-phenyl-1H-pyrazol-5-yl)-3-((3S,4R)-4-(3,4-difluorophenyl)-1-(2-methoxyethyl)pyrrolidin-3-yl)urea]
IC50: < 100 nM

COCCN1C[C@@H](NC(=O)Nc2c(Cl)c(-c3nc(C)no3)nn2-c2ccccc2)[C@H](c2ccc(F)c(F)c2)C1 [Example 416, 1-(4-chloro-3-(3-methyl-1,2,4-oxadiazol-5-yl)-1-phenyl-1H-pyrazol-5-yl)-3-((3S,4R)-4-(3,4-difluorophenyl)-1-(2-methoxyethyl)pyrrolidin-3-yl)urea]
IC50: < 100 nM

COCCN1C[C@@H](NC(=O)Nc2c(Br)c(C(C)(C)C#N)nn2-c2ccccc2)[C@H](c2ccc(F)c(F)c2)C1 [Example 417, 1-(4-bromo-3-(2-cyanopropan-2-yl)-1-phenyl-1H-pyrazol-5-yl)-3-((3S,4R)-4-(3,4-difluorophenyl)-1-(2-methoxyethyl)pyrrolidin-3-yl)urea]
IC50: < 100 nM

COCCN1C[C@@H](NC(=O)Nc2c(Cl)c(C(C)(C)C#N)nn2-c2ccccc2)[C@H](c2ccc(F)c(F)c2)C1 [Example 418, 1-(4-chloro-3-(2-cyanopropan-2-yl)-1-phenyl-1H-pyrazol-5-yl)-3-((3S,4R)-4-(3,4-difluorophenyl)-1-(2-methoxyethyl)pyrrolidin-3-yl)urea]
IC50: < 100 nM

COCCN1C[C@@H](NC(=O)Nc2c(Br)c(-c3cnn(C)c3)nn2-c2ccccc2)[C@H](c2cc(F)cc(F)c2)C1 [Example 419, 1-(4-bromo-1′-methyl-1-phenyl-1H,1′H-[3,4′-bipyrazol]-5-yl)-3-((3S,4R)-4-(3,5-difluorophenyl)-1-(2-methoxyethyl)pyrrolidin-3-yl)urea]
IC50: < 100 nM

COCCN1C[C@@H](NC(=O)Nc2c(Br)c(-c3cnn(C)c3)nn2-c2ccccc2)[C@H](c2ccc(F)c(F)c2)C1 [Example 420, 1-(4-bromo-1′-methyl-1-phenyl-1H,1′H-[3,4′-bipyrazol]-5-yl)-3-((3S,4R)-4-(3,4-difluorophenyl)-1-(2-methoxyethyl)pyrrolidin-3-yl)urea]
IC50: < 100 nM

COCCN1C[C@@H](NC(=O)Nc2c(Br)c(-c3cnn(C)c3)nn2-c2ccccc2)[C@H](c2ccc(F)cc2)C1 [Example 421]
IC50: < 100 nM

COCCN1C[C@@H](NC(=O)Nc2c(Cl)c(-c3cnn(C)c3)nn2-c2ccccc2)[C@H](c2cc(F)cc(F)c2)C1 [Example 422, 1-(4-chloro-1′-methyl-1-phenyl-1H,1′H-[3,4′-bipyrazol]-5-yl)-3-((3S,4R)-4-(3,5-difluorophenyl)-1-(2-methoxyethyl)pyrrolidin-3-yl)urea]
IC50: < 100 nM

COCCN1C[C@@H](NC(=O)Nc2c(Cl)c(-c3cnn(C)c3)nn2-c2ccccc2)[C@H](c2ccc(F)c(F)c2)C1 [Example 423, 1-(4-chloro-1′-methyl-1-phenyl-1H,1′H-[3,4′-bipyrazol]-5-yl)-3-((3S,4R)-4-(3,4-difluorophenyl)-1-(2-methoxyethyl)pyrrolidin-3-yl)urea]
IC50: < 100 nM

COCCN1C[C@@H](NC(=O)Nc2c(Cl)c(-c3cnn(C)c3)nn2-c2ccccc2)[C@H](c2ccc(F)cc2)C1 [Example 424, 1-(4-chloro-1′-methyl-1-phenyl-1H,1′H-[3,4′-bipyrazol]-5-yl)-3-((3S,4R)-4-(4-fluorophenyl)-1-(2-methoxyethyl)pyrrolidin-3-yl)urea]
IC50: < 100 nM

COCCN1C[C@@H](NC(=O)Nc2c(Cl)c(-c3cnn(C)c3)nn2-c2ccccc2)[C@H](c2ccccc2)C1 [Example 425, 1-(4-chloro-1′-methyl-1-phenyl-1H,1′H-[3,4′-bipyrazol]-5-yl)-3-((3S,4R)-4-phenyl-1-(2-methoxyethyl)pyrrolidin-3-yl)urea]
IC50: < 100 nM

COCCN1C[C@@H](NC(=O)Nc2c(Cl)c(-c3ccccc3)nn2-c2ccccc2)[C@H](c2cc(F)cc(F)c2)C1 [Example 426, 1-(4-chloro-1,3-diphenyl-1H-pyrazol-5-yl)-3-((3S,4R)-4-(3,5-difluorophenyl)-1-(2-methoxyethyl)pyrrolidin-3-yl)urea]
IC50: < 100 nM
